Source: a melting point compilation (Tetko et al.; mined from patent text by program, amines drawn as free bases though some values may be those of a salt)

melting point [°C] | SMILES
61 to 64 | CC1(C)COC(=O)C1=O
153 to 155 | CC(C)c1cc(C(C)C)c(CC(=O)NS(=O)(=O)Oc2c(C(C)C)cc(N)cc2C(C)C)c(C(C)C)c1
120 to 130 | CN1C(=O)CCC1(O)c1ccc(Cl)c(S(=O)(=O)Nc2cc(C(C)(C)C)c(O)c(C(C)(C)C)c2)c1 (stereo not given)
133 to 135 | Cc1cn(C[C@H]2CC[C@@H](CO)O2)c(=O)[nH]c1=O
237 to 242 | O=S1(=O)NC2CCCN2c2ccc(O)cc21 (stereo not given)
222 to 224 | Cc1[nH]c(-c2ccccc2)nc1-c1ccc(Cl)cc1Cl
95 | Cc1cccc(N2C(=S)SCC2(O)CC(C)C)n1 (stereo not given)
86 to 87 | Cc1nc2c(s1)CCCC2=O
116 | CC(CO)(CO)NS(=O)(=O)c1cccc([N+](=O)[O-])c1
146 to 147 | CN1CCC(=O)C(C2c3ccccc3CCc3ccccc32)C1 (stereo not given)
86 to 87 | O=[N+]([O-])CS(=O)(=O)c1c(F)c(F)cc(F)c1F
79 to 81 | CCCCOC(=O)c1ccccc1SN(C(=O)NC(=O)c1c(F)cccc1F)c1ccc(C(F)(F)F)cc1
42 to 43 | O=C1Cc2ccc(C3CCCC3)cc2O1
175 to 179 | CCCNC1=NS(=O)(=O)c2c(sc(C)c2C#N)N1C(=O)OCC
175 to 176 | c1ccc2c(c1)sc1nncn12
158 to 159 | CC(=O)NC[C@H]1CN(c2ccc3c(c2)CCC(C)N3)C(=O)O1 (stereo not given in full)
161 to 162 | CCS(=O)c1nc(-c2ccc(OC)cc2)c(-c2ccc(OC)cc2)[nH]1 (stereo not given)
170 | COc1cc2c(cc1C(=O)Cl)nnn2C(C)=O
144 to 145 | Nc1ncnc2c1c(-c1ccc(Oc3ccccc3)cc1)cn2CCO
175 | Cc1cc2nc(Cl)sc2cc1C
147 to 148 | CCCNC(=O)C1(CCCCc2ccc(N3Cc4ccccc4C3=O)cc2)c2ccccc2-c2ccccc21
215 to 216 | CC(C)N1CC(COc2cccc3c(=O)[nH]ccc23)OC1=O (stereo not given)
124 to 125 | CCOc1ccc2nc(SC)c(C=O)cc2c1
71 to 72 | CC(C)(C)c1cc2ccccc2[nH]1

melting point [°C] | SMILES
209 to 210 | NS(=O)(=O)c1cnc(-c2ccccc2)s1
120 to 122 | COC(=O)NC12CC=CCC1CCc1ccc(OC)cc12 (stereo not given)
215 | CCNC(=N)NC(=O)c1c(-c2ccccc2)noc1C
238 to 239 | Cc1cc2ncn(Cc3ccc(N)cc3)c2cc1C
81 to 83 | CN(C)c1c(-c2ccc(Cl)cc2)sc2ccccc12
182 | COc1cccc2c(=O)c3c(O)cc(OCC4CO4)cc3oc12 (stereo not given)
250 to 253 | CCn1cc(C(=O)O)c(=O)c2cc(F)c(N3CC4CCC3CN4)nc21 (stereo not given)
204 to 205 | CN1CCC(=C2c3ccccc3C(CO)=C(CO)c3ccccc32)CC1
146 | Cc1ccc(-c2cc(OCC(=O)N3CCOCC3)c3ccccc3n2)cc1
126 to 127 | COc1ccc(-c2nc(Cn3ccnn3)co2)cc1
68 to 75 | CCc1c([N+](=O)[O-])c(C(N)=O)nn1C[C@@H]1CCCN1C(=O)OC(C)(C)C
263 to 265 | CC(C)(c1ccccc1)c1ccc(N)c(S(=O)(=O)O)c1
105 to 106 | COCCn1cc(C(=O)NCc2ccc(Cl)cc2)c(=O)c2cc(CN(C)C[C@@H](O)c3ccccc3)sc21
190 to 191 | CCCn1nc(-c2c(-c3ccc(F)cc3)nn3ccc(OC)cc23)ccc1=O
96 to 98 | O=c1cc(NCCN2CCN(c3ccc(F)cc3)CC2)cn[nH]1
87.5 to 90.4 | COC(=O)COc1ccc(NC(=O)CCCCCO)cc1
120 to 122 | CCSCCc1c(-c2ccccc2)nc(N)n2ncnc12
105 | CCCCCC(O)CCCN(Cc1cccc(C=CC(=O)O)c1)S(C)(=O)=O (stereo not given)
208 to 211 | CC1(C)C(=O)Nc2cc3oc(Cc4ccncc4)nc3cc21
243 to 245 | Cc1cc(=O)[nH]c2ccc(OCCCN3CCC(NC(=O)c4ccccc4)CC3)cc12
112 to 114 | CCOc1ccc2nc(C)cc(=O)n2c1C
> 360 | O=c1c2c(c1=O)Nc1cc(Cl)c(Cl)cc1N2
> 270 | O=C(O)c1cc(Cl)c(Cl)cc1C(=O)Nc1cccc(-c2ccnc3c(C(=O)c4cccs4)cnn23)c1
137 to 140 | CN1CCC(C(C(=O)N2CCCC2)(c2ccccc2)c2ccccc2)C1 (stereo not given)

melting point [°C] | SMILES
250 | O=C(CN1C(=O)c2ccccc2C1=O)Nc1ccccc1Cl
169 to 170 | CCOC(=O)c1ccc(NC(=O)c2ccc3c(c2)CCC(C)(C)C(=O)N3C)cc1
132 to 133 | CC(C)CCCC(C)C1CCC2C3CCC4CC(=O)CC(C)C4(C)C3CCC12C (stereo not given)
127 to 129 | CCOc1ccc2c(c1)C(=O)N(c1ccc3sccc3c1)C2
79 to 81.5 | CNC(=NC#N)NCCSCc1ccc(CN(C)C)o1
114 to 116 | CC1=CCc2cccc(OCC3CN(C(C)C)CCO3)c21 (stereo not given)
223 to 224 | COc1ccc(C(=O)Oc2ccc(S(N)(=O)=O)cc2)cc1C12CC3CC(CC(C3)C1)C2
115 to 116 | COc1cc2c(cc1OC)CCN(CCCN(C)C1CCc3cc(OC)c(OC)cc3C1)C=C2 (stereo not given)
108 to 110 | Brc1ccccc1C=Cc1ccco1
86 to 96 | N#Cc1cc(C#N)c(SC2SCC(O)C(O)C2O)c(C#N)c1 (stereo not given)
158 to 160 | C[C@@H](n1cnc2cc(-c3ccc(Cl)cc3)sc2c1=O)[C@](O)(Cn1cncn1)c1ccc(F)cc1F
203 to 206 | Nc1c2c(nc3cc(F)ccc13)CCCC2O (stereo not given)
69.4 | CCCCNC(=O)c1ccc(S(=O)(=O)NCCCC)o1
190 to 191 | Cc1c(C(=O)NCc2ccccc2)nc(-n2ccc(OCc3ccccc3)cc2=O)n1C
198 | COc1ccc(S(=O)(=O)C(Nc2c(Br)cc(C)cc2C(=O)O)c2cccnc2)cc1 (stereo not given)
78 to 80 | CC1(C)[C@H]2CC=C(CCOCC(=O)O)[C@@H]1C2
178 to 192 | COc1ccc(OC)c(CN2CCc3cc(O)ccc3C2)c1
256 | Cc1cc(-c2cnn3c(C(F)(F)F)cc(-c4ccc(Cl)cc4)nc23)cc(C)n1
147 | OCc1cccn1CCN1CCC(=C2c3ccccc3CCn3ccnc32)CC1
64 to 66 | O=c1nc2n(c(=O)n1CCBr)CCCC2
190 to 192 | CCOc1cc2c(Nc3ccc(OC)cc3)c(C#N)cnc2nc1C
145 to 147 | Cc1cc(C#N)ccc1-c1cc(=O)c2c(O)cc(O)c([C@@H]3CCN(C)[C@H]3CO)c2o1
172 | Cc1ccc(S(=O)(=O)n2c(CCCC(=O)O)cc3nc(Cl)ccc32)cc1

SMILES | melting point [°C]
CCOC(=O)COC1CCC2C3CCC4NC(=O)CCC4(C)C3CCC12C (stereo not given) | 170 to 172
NC(=O)c1cc2n(n1)-c1ccc(Cl)cc1C(c1ccccc1)=NC2 | 216 to 218
O=S(=O)(Br)c1cccs1 | 49 to 51
O=C(c1ccc([N+](=O)[O-])[nH]1)C(Cl)(Cl)Cl | 160 to 163
